Earlier results, collected in patent US12551486B2, “Rivaroxaban formulation” (Shanghai Auson Pharmaceuticals Co., Ltd., priority 2021, dated 2026).

With `O=C(NC[C@H]1CN(c2ccc(N3CCOCC3=O)cc2)C(=O)O1)c1ccc(Cl)s1` [Rivaroxaban, 5-chloro-N-[[(5S)-2-oxo-3-[4-(3-oxomorpholin-4-yl)phenyl]-1,3-oxazolidin-5-yl]methyl]thiophene-2-carboxamide] as the compound, how does the Solubility in water read?
Its Solubility in water is “insoluble in water”.
